Data: ChEMBL document CHEMBL5360636, “Hyperelatolides A-D, Antineuroinflammatory Constituents with Unusual Carbon Skeletons from Hypericum elatoides” (J Nat Prod, 2023)

Experiments:
[1] = tested on: BV-2; test: Antineuroinflammatory activity in LPS-induced mouse BV-2 cells assessed as inhibition of NO production by griess assay; assay type: functional, cell-based
[2] = tested on: BV-2; test: Cytotoxicity against mouse BV-2 cells at 20 uM by MTT assay; assay type: toxicity, cell-based; conditions: bv-2, 20 µM
[3] = tested on: BV-2; test: Antineuroinflammatory activity in LPS-induced mouse BV-2 cells assessed as reduction in cytoplasmic NF-kappaB protein expression by Western blot analysis; assay type: functional, cell-based; conditions: dose 2.5-10 µM
[4] = tested on: BV-2; test: Antineuroinflammatory activity in LPS-induced mouse BV-2 cells assessed as downregulation of COX-2 protein expression by Western blot analysis; assay type: functional, cell-based; conditions: dose 2.5-10 µM
[5] = tested on: BV-2; test: Antineuroinflammatory activity in LPS-induced mouse BV-2 cells assessed as downregulation of iNOS protein expression by Western blot analysis; assay type: functional, cell-based; conditions: dose 2.5-10 µM
[6] = tested on: BV-2; test: Antineuroinflammatory activity in LPS-induced mouse BV-2 cells assessed as reduction in nuclear NF-kappaB protein expression by Western blot analysis; assay type: functional, cell-based; conditions: dose 2.5-10 µM

| Compound | IC50 [1] [µM] | Activity [2] | Activity [3] | Activity [4] | Activity [5] | Activity [6] |
| --- | --- | --- | --- | --- | --- | --- |
| O=c1c(O)c(-c2ccc(O)c(O)c2)oc2cc(O)cc(O)c12 [QUERCETIN] | 7.41 |  |  |  |  |  |
| CC(=O)C[C@@H]1CCC(C)(C)C/C1=C/[C@H]1CC(=O)O[C@H]1C(C)(C)OC(=O)c1ccccc1 | 14.9 | Non-Toxic |  |  |  |  |
| CC(=O)C[C@@H]1CCC(C)(C)C/C1=C/C1=CC(C)(C)OC1=O | > 20 | Non-Toxic |  |  |  |  |
| C[C@@H]1C[C@H]2[C@@H]3CCC4=CC(=O)C=C[C@]4(C)[C@@]3(F)[C@@H](O)C[C@]2(C)[C@@]1(O)C(=O)CO [DEXAMETHASONE] | 2.83 |  |  |  |  |  |
| COc1ccc2c(c1)c(CC(=O)O)c(C)n2C(=O)c1ccc(Cl)cc1 [INDOMETHACIN] | 19.5 |  |  |  |  |  |
| CC(=O)C[C@@H]1CCC(C)(C)C/C1=C/[C@H]1CC(=O)OC(C)(C)[C@H]1OC(=O)c1ccccc1 | 5.74 | Non-Toxic | Dose-Dependent Effect | Dose-Dependent Effect | Dose-Dependent Effect | Dose-Dependent Effect |
| CC(=O)C[C@@H]1CCC(C)(C)C/C1=C/[C@H]1CC(=O)OC(C)(C)[C@@H]1OC(=O)c1ccccc1 | 7.35 | Non-Toxic |  |  |  |  |
